From patent publication US12465607B2, “ALK inhibitors for treatment of ALK-negative cancer and plasma cell-mediated diseases” (UNIVERSITETET I OSLO, priority 2019, dated 2025)

What was measured:
HeLa cells = assay: ER-to-Golgi trafficking in HeLa cells (ERES staining, mannosidase-II RUSH reporter); type: cell-based; conditions: RUSH reporter 20 min after biotin
Description: In A, HeLa cells expressing flag-tagged LTK were treated with 1 μM of crizotinib or ceritinib for 30 minutes. Afterwards, cells were lysed and immunoblotted against phosphorylated LTK, which is used as a surrogate for the active form of LTK. […] B, HeLa cells were treated with 1 μM ceritinib for 30 minutes followed by fixation and staining for Sec31A to label ERES. Cells were imaged by confocal microscopy and ERES were counted using ImageJ. C, HeLa cells stably expressing mCherry-tagged mannosidase-II RUSH reporter. Cells were treated with biotin to release the reporter from the ER. After 20 min, a time point where most of the reporter has reached the Golgi, cells were fixed and immunostained for GM130 to label the Golgi apparatus. […] D, IgA secreting AMO-1 cells were treated for 3 h with the indicated doses of crizotinib and the amount of IgA in cell supernatant was determined by ELISA.

AMO-1 = assay: Myeloma cell line viability, CCK-8, 24 hr; type: cell-based; conditions: Homo sapiens, AMO1; AMO-1, 24 hr treatment
Description: (§1) The Results are the means of 3 independent experiments. Note the concentration-dependent reduction of viability of myeloma cells.
(§2) The cell lines used were the human multiple myeloma cell lines L363 (DSMZ catalogue number ACC 49), AMO-1 (DSMZ catalogue number ACC 538) and ARH-77 (ATCC CRL-1621).
(§3) Multiple myeloma cell lines were maintained in RPMI-1640 culture medium (Sigma-Aldrich, Buchs, Switzerland) supplemented with 10% heat-inactivated fetal bovine serum (FBS), 100 μg/ml streptomycin and 100 U/ml penicillin/streptomycin (Sigma-Aldrich, Buchs, Switzerland). The bortezomib-resistant cell lines were established and maintained from their parental cell line by continuous drug exposure>12 months to their parental cell lines (Soriano et al, Leukemia 30: 2198-2207, 2016).
(§4) The viability of the cells was determined 24 hr post treatment using Cell Counting Kit-8 (CCK-8; MedChemExpress, NJ, USA) according to the manufacturer's instructions.

AMO-1-BTZ = assay: Myeloma cell line viability, CCK-8, 24 hr; type: cell-based; conditions: Homo sapiens, 24 hr treatment
Description: as §1, §2, §3, §4

plasma cells = assay: Viability of in vitro-generated IRF4/BLIMP1 double positive end stage plasma cells; type: cell-based; conditions: Homo sapiens, B-cell, 120 h; B-cells stimulated 5 days, inhibitor day 5-7
Description: Negatively selected normal B-cells from blood bank donors were stimulated with sCD40L, IL-21, IL-4 for 5 days. This protocol allows generation of 10-20% end differentiated plasma cells that express IRF4 and BLIMP1. From day 5-7, cells were exposed to titred crizotinib in A, or ceritinib in B.
In A and B, IRF4 vs BLIMP1 in gated CD19^+ B cells is shown. IRF4 and BLIMP1 double positive cells represent end stage plasma cells. Such plasma cells are gated (blue elliptic region) and percent plasma cells are shown. The conditions without inhibitor (0) and with linear Alk-inhibitor (crizotinib, A; ceritinib, B) are shown for concentrations 0.01 μM, 0.1 μM, 1 μM, 10 μM and 100 μM.

L363wt plasma cell lines = assay: Intrafemoral Luciferase+ L363wt plasma cell line xenograft in NSG mice, IVIS imaging; type: in vivo; conditions: 50 mg/kg, orally, daily, 7 days
Description: Luciferase^+ L363wt plasma cell lines were injected intrafemorally into immunocompromised NSG mice. After 10 days, mice were treated with crizotinib (50 mg/kg, orally, daily) every day for 7 days.
Mice were imaged on an IVIS optical imager on days 10, 14 and 17. Ventral aspects of 3 (of 4) mice are shown. Mice received vehicle (top) or crizotinib (bottom).

LTK = target: T1, LTK (Homo sapiens, UniProt P29376); conditions: Centonze et al.; cited from earlier work
T1 construct: expressed in transfected cells; host or cells: HeLa cells
T1 sequence (P29376 17-864): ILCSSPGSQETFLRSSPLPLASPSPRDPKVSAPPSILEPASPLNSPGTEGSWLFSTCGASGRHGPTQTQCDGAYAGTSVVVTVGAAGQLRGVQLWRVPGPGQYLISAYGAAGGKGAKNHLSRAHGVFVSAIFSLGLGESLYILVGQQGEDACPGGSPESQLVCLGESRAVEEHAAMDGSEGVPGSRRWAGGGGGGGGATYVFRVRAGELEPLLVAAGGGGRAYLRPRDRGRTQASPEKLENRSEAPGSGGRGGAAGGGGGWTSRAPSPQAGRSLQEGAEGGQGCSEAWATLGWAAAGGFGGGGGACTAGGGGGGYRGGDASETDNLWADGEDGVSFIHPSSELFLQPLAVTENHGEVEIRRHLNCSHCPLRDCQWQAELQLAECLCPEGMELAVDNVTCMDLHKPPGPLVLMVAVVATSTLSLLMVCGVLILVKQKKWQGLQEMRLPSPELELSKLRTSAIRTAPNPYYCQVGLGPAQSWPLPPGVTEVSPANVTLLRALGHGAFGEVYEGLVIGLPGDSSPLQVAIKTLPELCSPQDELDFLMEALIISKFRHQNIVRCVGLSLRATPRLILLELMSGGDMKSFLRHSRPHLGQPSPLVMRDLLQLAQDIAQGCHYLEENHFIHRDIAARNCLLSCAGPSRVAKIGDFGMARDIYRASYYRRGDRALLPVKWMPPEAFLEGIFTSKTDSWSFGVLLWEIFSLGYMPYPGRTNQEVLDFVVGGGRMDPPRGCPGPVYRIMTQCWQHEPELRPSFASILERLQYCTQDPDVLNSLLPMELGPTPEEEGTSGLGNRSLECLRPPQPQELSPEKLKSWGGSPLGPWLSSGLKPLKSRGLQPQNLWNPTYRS

[1] = tested on: CD138+ multiple myeloma cells; assay: Viability of patient CD138+ multiple myeloma cells, CellTiterGlo 72 hr; type: cell-based; conditions: Homo sapiens, Multiple myeloma cell, patient-derived CD138+ multiple myeloma cells
Description: Viability was measured by CellTiterGlo.
Seven multiple myeloma patient samples were included. Patients were due for treatment after second relapse (patient number 1701), third relapse (2101, 2021, 1802, 9041, 2504) or fourth relapse (2201).
Bone marrow mononuclear cells (BMMCs) were prepared from patient bone marrow aspirates by Lymphoprep density gradient centrifugation. After CD8 depletion by Dynabeads (Life Technologies) BMMCs were subsequently stimulated by expanding Th cells in the presence of Human T-Activator CD3/CD28 Dynabeads (Life Technologies) and 100 U/ml human interleukin-2 (hIL-2, Roche, Mannheim, Germany). After 48 h, BMMCs were subjected to CD138+ enrichment to isolate multiple myeloma plasma cells using MACS CD138+ microbeads (Milteny Biotec, Bergisch Gladbach, Germany).
6 crizotinib concentrations were tested, in 10-fold dilutions covering a 0.1-10,000 nM concentration range (plates dispensed by an Echo acoustic dispenser, LabCyte Inc., San Jose, CA, USA).
The plate was incubated in a humidified environment at 37° C. and 5% CO2. Cell viability was determined after 72 hr using the CellTiterGlo (Promega, Madison, WI, USA) ATP assay according to the manufacturer's instructions and using an Envision Xcite plate reader (Perkin Elmer, Shelton, CT, USA). […]

L363 = assay: Myeloma cell line viability, CCK-8, 24 hr; type: cell-based, human
Description: as §1, §2, §3, §4

L363-BTZ = assay: Myeloma cell line viability, CCK-8, 24 hr; type: cell-based, human
Description: as §1, §2, §3, §4

ARH77 = assay: Myeloma cell line viability, CCK-8, 24 hr; type: cell-based, human; conditions: ARH77, 24 h
Description: In A, HeLa cells expressing inducible IgM (heavy and light chain) were treated with mifepristone to induce IgM expression over a period of 2 weeks. Afterwards, cells were treated with 1 μM crizotinib for 24 h followed by lysis and immunoblotting for caspase 3. […] Cleavage of caspase 3 is indicative of apoptosis induction. + and − indicate cells with or without mifepristone treatment, respectively. B, Concentration-response curves for the effect of crizotinib treatment (24 h) on the viability of three different myeloma cell lines. Results are the means of three independent experiments. C, Expression levels of LTK and ALK mRNA in the indicated myeloma cell lines determined by qPCR.
as §2
Multiple myeloma cell lines were maintained in RPMI-1640 culture medium (Sigma-Aldrich, Buchs, Switzerland) supplemented with 10% heat-inactivated fetal bovine serum (FBS), 100 μg/ml streptomycin and 100 U/ml penicillin/streptomycin (Sigma-Aldrich, Buchs, Switzerland). […]
as §4

[2] = tested on: B-cell blasts (plasma blasts/cells); assay: Viability of in vitro-generated B-cell blasts (plasma blasts/cells), CellTiterGlo 72 h; type: cell-based; conditions: Homo sapiens, day 3 B-cell blasts from 5 donors
Description: CD19^+ B-cells from 5 blood bank donors were stimulated by adherent murine L cells expressing CD40L, BAFF and April for 3 days to make B-cell blasts (plasma blasts/cells). plasma blasts/cells were tested for sensitivity to crizotinib for 72 h (CellTiterGlo).
CD19^+ B-cells from 5 blood bank donors were stimulated by adherent murine L cells expressing CD40L, BAFF and April for 3 days to make B-cell blasts (plasma blasts/cells). Washed plasma blasts/cells were detached and plated into 384 well format (10,000 cells/well) and tested against crizotinib at 6 concentrations in 10-fold dilutions covering a 10^−3-10 μM concentration range. Cell viability was determined after 72 h using the CellTiterGlo. Relative percentage cell viability was calculated by normalising luminescence units for each well to negative controls (DMSO 0.1%) and positive control wells (100 μM BzCl) and curve-fitting conducted to obtain the IC50.

## C[C@@H](Oc1cc(-c2cnn(C3CCNCC3)c2)cnc1N)c1c(Cl)ccc(F)c1Cl [crizotinib, 3-[(1R)-1-(2,6-dichloro-3-fluorophenyl)ethoxy]-5-(1-piperidin-4-ylpyrazol-4-yl)pyridin-2-amine]
HeLa cells
  ER-to-Golgi trafficking: less of the reporter in the Golgi region
AMO-1
  IC50: 3.92 µM
AMO-1-BTZ
  IC50: 6.48 µM
Plasma cells
  IC50: 0.8 µM
L363wt plasma cell lines
  mice with dramatically reduced signals from plasma cells: 3 of 4
  plasma cell density (luciferase dependent signals): reduced plasma cell density
LTK
  inhibition of LTK (previously shown): previously been shown to inhibit LTK
[1]
  IC50: 0.8 to 5 µM
L363; Homo sapiens, L-363, L363, 24 hr treatment
  IC50: 3.32 µM
L363; L363, 24 h
  cell viability: clear reductions in cell viability
L363-BTZ; Homo sapiens, L363-BTZ, 24 hr treatment
  IC50: 4.15 µM
L363-BTZ; bortezomib-resistant clone of L363, 24 h
  cell viability: The same was found to be the case
ARH77
  cell viability: clear reductions in cell viability
[2]
  IC50: 1 to 1.5 µM
